Experimental data taken from patent US6833456B2, “Indolyl-urea derivatives of thienopyridines useful as antiangiogenic agents, and methods for their use” (Agouron Pharmaceuticals, Inc., priority 2002, dated 2004).
pKi: −log10 of the molar value.

Target: T1, unphosphorylated VEGF-R2Δ50 (FLVK) (Homo sapiens, UniProt P35968, DEL940-989/E990V)
T1 construct: VEGF-R2Δ50 contains residues 806-939 and 990-1171; made in house; host or cells: baculovirus/insect cell system
Experiment: VEGF-R2 coupled spectrophotometric assay, unphosphorylated construct (FLVK)
Format: biochemical
Details: for inhibition at 0.05 µM: percent inhibition at 50 nM
From the text: This construct determines the ability of a test compound to inhibit tyrosine kinase activity. A construct (VEGF-R2Δ50) of the cytosolic domain of human vascular endothelial growth factor receptor 2 (VEGF-R2) lacking the 50 central residues of the 68 residues of the kinase insert domain was expressed in a baculovirus/insect cell system. Of the 1356 residues of full-length VEGF-R2, VEGF-R2Δ50 contains residues 806-939 and 990-1171, and also one point mutation (E990V) within the kinase insert domain relative to wild-type VEGF-R2. Autophosphorylation of the purified construct was performed by incubation of the enzyme at a concentration of 4 μM in the presence of 3 mM ATP and 40 mM MgCl2 in 100 mM HEPES, pH 7.5, containing 5% glycerol and 5 mM DTT, at 4° C. for 2 h. […] See Parast et al., Biochemistry, 37, 16788-16801 (1998).
The production of ADP from ATP that accompanies phosphoryl transfer was coupled to oxidation of NADH using phosphoenolpyruvate (PEP) and a system having pyruvate kinase (PK) and lactic dehydrogenase (LDH). The oxidation of NADH was monitored by following the decrease of absorbance at 340 nm ([…]=6.22 cm^−1 mM^−1) using a Beckman DU 650 spectrophotometer. Assay conditions for phosphorylated VEGF-R2Δ50 (indicated as FLVK-P in the tables below) were the following: 1 mM PEP; 250 μM NADH; 50 units of LDH/mL; 20 units of PK/mL; 5 mM DTT; […]; 1 mM ATP; and 25 mM MgCl2 in 200 mM HEPES, pH 7.5. Assay conditions for unphosphorylated VEGF-R2Δ50 (indicated as FLVK in the tables) were the following: 1 mM PEP; 250 μM NADH; 50 units of LDH/mL; 20 units of PK/mL; 5 mM DTT; […]; 3 mM ATP; and 60 mM MgCl2 and 2 mM MnCl2 in 200 mM HEPES, pH 7.5. Assays were initiated with 5 to 40 nM of enzyme. Ki values were determined by measuring enzyme activity in the presence of varying concentrations of test compounds. The percent inhibition at 50 nm (% inhibition@ 50 nm) was determined by linear least-squares regression analysis of absorbance as a function of time. The binding inhibitions were fitted to equation as described by Morrison. The data were analyzed using Enzyme Kinetic and Kaleidagraph software.

T1 sequence (P35968 with tags, fused parts or gaps DEL940-989/E990V limits assumed): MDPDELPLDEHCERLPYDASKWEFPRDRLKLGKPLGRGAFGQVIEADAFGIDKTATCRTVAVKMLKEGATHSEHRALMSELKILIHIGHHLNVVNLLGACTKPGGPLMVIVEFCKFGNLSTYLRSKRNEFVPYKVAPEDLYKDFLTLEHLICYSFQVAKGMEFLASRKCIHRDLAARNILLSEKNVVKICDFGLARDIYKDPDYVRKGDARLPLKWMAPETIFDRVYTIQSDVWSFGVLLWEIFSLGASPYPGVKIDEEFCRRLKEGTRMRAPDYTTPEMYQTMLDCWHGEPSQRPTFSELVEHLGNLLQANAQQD

| SMILES | pKi | inhibition at 0.05 µM |
| --- | --- | --- |
| CCOC(=O)c1cc2c(Nc3ccc4c(c3)cc(C)n4C(=O)NC)ncnc2s1 [Example 12a, 4-(2-Methyl-1-methylcarbamoyl-1H-indol-5-ylamino)-thieno[2,3-b]pyrimidine-6-carboxylic acid ethyl ester] | 6.62 | 0% |
| CNC(=O)n1c(C)cc2cc(Nc3ccnc4cc(C(=O)N5CCC5)sc34)ccc21 [Example 7c, 5-[2-(Azetidine-1-carbonyl)-thieno[3,2-b]pyridin-7-ylamino]-2-methyl-indole-1-carboxylic acid methylamide] | 8.72 | 97% |
| CO[C@H]1CN(C(=O)c2cc3nccc(Oc4ccc5c(c4)cc(C)n5C(=O)NC4CC4)c3s2)C[C@H]1OC [Example 4t, 5-[2-(3,4-cis-Dimethoxy-pyrrolidine-1-carbonyl)-thieno[3,2-b]pyridin-7-yloxy]-2-methyl-indole-1-carboxylic acid cyclopropylamide] | 9.23 | 98% |
| CCOC(=O)c1cc2ncnc(Nc3ccc4c(c3)cc(C)n4C(=O)NC)c2s1 [Example 11a, 4-(2-Methyl-1-methylcarbamoyl-1H-indol-5-ylamino)-thieno[3,2-b]pyrimidine-6-carboxylic acid ethyl ester] | 7.42 | 20% |
| CNC(=O)n1c(C)cc2cc(Nc3ncnc4cc(C(=O)N5CCC[C@H]5COC)sc34)ccc21 [Example 11b, 5-[6-(2-Methoxymethyl-pyrrolidine-1-carbonyl)-thieno[3,2-b]pyrimidin-4-ylamino]-2-methyl-indole-1-carboxylic acid methylamide] | 7.54 | 18% |
| CCC(=O)n1c(C)cc2cc(Oc3ccnc4cc(C(=O)N5CC[C@H](O)C5)sc34)ccc21 [Example 10b, (3S)-1-({7-[(2-Methyl-1-propionyl-1H-indol-5-yl)oxy]thieno[3,2-b]pyridin-2-yl}carbonyl)pyrrolidin-3-ol] | 8.56 | 90% |
| CNC(=O)n1c(C)cc2cc(Nc3ccnc4cc(C(=O)N5CC(F)[C@H](OC)C5)sc34)ccc21 (stereo partly drawn) [Example 7a, 5-[(2-{[(4R)-3-Fluoro-4-methoxypyrrolidin-1-yl]carbonyl}thieno[3,2-b]pyridin-7-yl)amino]-N,2-dimethyl-1H-indole-1-carboxamide] | 9.10 | 93% |

Now those with a higher pKi, led by results:

| pKi | inhibition at 0.05 µM | SMILES |
| --- | --- | --- |
| 9.46 | 99% | CCCNC(=O)n1c(C)cc2cc(Oc3ccnc4cc(C(=O)N5C[C@H](O)[C@@H](O)C5)sc34)ccc21 [Example 8f, 5-[(2-{[(3S,4S)-3,4-Dihydroxypyrrolidin-1-yl]carbonyl}thieno[3,2-b]pyridin-7-yl)oxy]-2-methyl-N-propyl-1H-indole-1-carboxamide] |
| 9.41 | 100% | Cc1cc2c(F)c(Oc3ccnc4cc(C(=O)N5CC[C@H](O)C5)sc34)ccc2n1C(=O)NC1CC1 [Example 5j, 4-Fluoro-5-[2-(3S-hydroxy-pyrrolidine-1-carbonyl)-thieno[3,2-b]pyridin-7-yloxy]-2-methyl-indole-1-carboxylic acid cyclopropylamide] |
| 9.91 | 98% | CNC(=O)n1c(C)cc2cc(Oc3ccnc4cc(C(=O)N5C[C@H](OC)[C@@H](O)C5)sc34)ccc21 [Example 8c] |
| 9.28 | 89% | CO[C@H]1CCN(C(=O)c2cc3nccc(Oc4ccc5c(c4)cc(C)n5C(=O)NCCCCO)c3s2)C1 [Example 9a, 5-[2-(3S-Methoxy-pyrrolidine-1-carbonyl)-thieno[3,2-b]pyridin-7-yloxy]-2-methyl-indole-1-carboxylic acid (4-hydroxy-butyl)-amide] |
| 9.76 | 99% | C#CCNC(=O)n1c(C)cc2cc(Oc3ccnc4cc(C(=O)N5C[C@@H](O)[C@@H](O)C5)sc34)ccc21 [Example 4w, 5-[2-(3,4-cis-Dihydroxy-pyrrolidine-1-carbonyl)-thieno[3,2-b]pyridin-7-yloxy]-2-methyl-indole-1-carboxylic acid prop-2-ynylamide] |
